What was measured:
[1] = system: pyocyanin, an MvfR-regulated virulence factor, P. aeruginosa PA14; assay: Quantification of pyocyanin (OD520nm of chloroform-extracted cultures); format: cell-based, Pseudomonas aeruginosa; conditions: for pyocyanin levels: twelve of the 17 HAQ-lowering hits, vs control; for reduction / inhibition of pyocyanin: very low concentrations, nanomolar range
Procedure: Pyocyanin levels were determined by measuring OD520nm of chloroform-extracted cultures.
Compounds were tested at various concentrations for their impact on 4-hydroxy-2-alkylquinoline (HAQ) levels, including the MvfR ligands 4-hydroxy-2-heptylquinoline (HHQ) and 3,4-dihydroxy-2-heptylquinoline (PQS), as well as 2-n-heptyl-4-hydroxyquinoline-N-oxide (HQNO) and 2,4-dihydroxyquinoline (DHQ) (FIGS. 2A-2C). Levels of the phenazine, pyocyanin, an MvfR-regulated virulence factor, were also determined.

[2] = system: ΔmvfR mutant constitutively expressing the pqsABCD genes; assay: HAQ production in ΔmvfR mutant constitutively expressing pqsABCD (LC/MS); format: cell-based, Pseudomonas aeruginosa; conditions: 100 μM inhibitor
Source text: However, since these compounds diminish or abolish P. aeruginosa HAQ production, it is possible that they target either the MvfR protein itself or enzymes in the pqs operon that are required for HAQ synthesis. To further understand the target(s) of these compounds, a ΔmvfR mutant constitutively expressing the pqsABCD genes was used. This strain is capable of synthesizing HHQ, HQNO, PQS and DHQ independently of MvfR. […] Since PqsA and PqsD are necessary and sufficient for DHQ production, it is possible that these inhibitors target either PqsB or PqsC enzymes, which are required for HHQ and PQS production.

[3] = system: 4-hydroxy-2-alkylquinoline (HAQ) levels, P. aeruginosa PA14 (MvfR regulon); format: cell-based, Pseudomonas aeruginosa; conditions: for activity (impacts on HAQ and pyocyanin levels), structure-activity comparison / HAQ production / HAQ inhibition: tested at 10 μM; for concentration at which compound was effective (decreased HAQ levels), as low as: among the seventeen HAQ-lowering hits; for reduction / inhibition of HAQs: very low concentrations, nanomolar range
[4] = system: Raw264.7 macrophage cells infected with PA14; assay: Viability of PA14-infected macrophage cells (MTT assay); format: cell-based; conditions: PA14 MOI 100, 3 h, 100 μM compound
Procedure: Raw264.7 macrophage cells were cultured in Dulbecco's modified eagles medium (DMEM) containing 10% FCS, 2 mM glutamine and antibiotic-antimycotic solutions. Before infections cells were washed with PBS (without Mg2+ and Ca2+) and antibiotic-free medium was used for infections. The cells were infected with PA14 and PA14 isolates grown in the presence of compounds at an MOI of 100 for 3 h at 37° C. in a 5% CO2 atmosphere. During infections cells were incubated with 100 μM of compounds as well. After 3 hours of PA14 infection, the cells were washed and incubated with DMEM medium containing polymixin B and gentamicin in order to kill the extracellular bacteria. The viability of Raw264.7 was assessed using the MTT assay, which detects the early sign of eukaryotic cell death. The formazan crystals formed in viable, metabolically active cells were dissolved by the addition of 100 μl DMSO and optical density was measured at 570 nm in a microplate reader.
In order to determine whether or not the potent inhibitors are cytotoxic in eukaryotes, Raw 264.7 macrophage cells were exposed to selected compounds. No significant cytotoxicity was observed following compound exposure for 3 hours compared to the DMSO solvent control (FIG. 6A). The cytotoxicity of the macrophage cells was also determined when infected with PA14 bacterial cells alone or in the presence of the compounds.

P. aeruginosa PA14 = assay: Murine burn and infection model, M64 plus ciprofloxacin; format: in vivo, DC-1 mice; conditions: IV at 6, 20, 28, 40, 60, 68 and 80 h; M64 100 μM (4 mg/Kg), ciprofloxacin 0.4 mg/Kg; 7 days; un-injected controls 30%
Source text: A murine thermal injury model (Stevens et al., J Burn Care Rehabil. 1994; 15:232-235) was used as previously described to further assess bacterial pathogenicity in 6-wk-old DC-1 mice (Rahme et al., Science, 268(5219): p. 1899-902 (1995)) in the presence of combination of Ciprofloxacin (Bayer AG) and M64. Following mouse anesthetization, a full-thickness thermal burn injury involving 5%-8% of the body surface area was produced on the dermis of the shaved abdomen, and an inoculum of about 6-7×10^3 PA14 cells was injected intradermally into the burn eschar along with DMSO or 100 μM M64 compound. 100 μM (4 mg/Kg) of M64, 0.4 mg/Kg of ciprofloxacin (lower than the recommended dose of 10 mg/Kg), or a combination of M64+ciproflocaxin was also injected IV via tail vein at 6, 20, 28, 40, 60, 68 h and 80 h post-infection. Mice survival was subsequently assessed over the course of 7 days. Ten animals per treatment were used. In this set of experiments the concentration of ciprofloxacin used was lower than the therapeutic levels recommended to permit assessment of the possible synergistic effect between M64 and ciprofloxacin.

N#Cc1ccc(NC(=O)CSc2nc3ccccc3[nH]2)cc1 [Compound B1, 2-((1H-benzo[d]imidazol-2-yl)thio)-N-(4-cyanophenyl)acetamide]
pyocyanin levels [1]: less than half of the control
HAQ levels compared to the solvent control [2]: intermediate phenotype
activity (impacts on HAQ and pyocyanin levels), structure-activity comparison [3]: active compounds

CSc1cccc(NC(=O)CSc2nc3ccccc3[nH]2)c1 [Compound M4, 2-((1H-benzo[d]imidazol-2-yl)thio)-N-(3-(methylthio)phenyl)acetamide]
DHQ level [2]: increased
HHQ and HQNO levels [2]: reduced
concentration at which compound was effective (decreased HAQ levels), as low as [3]: 10 µM
HAQ production / HAQ inhibition [3]: improved HAQ inhibition

O=C(CSc1nc2ccccc2[nH]1)Nc1ccc(Cl)c(Cl)c1 [Compound M22, 2-((1H-benzo[d]imidazol-2-yl)thio)-N-(3,4-dichlorophenyl)acetamide]
activity (impacts on HAQ and pyocyanin levels), structure-activity comparison [3]: decreased the activity as compared to M26

CCc1ccc(NC(=O)CSc2nc3ccc(C)cc3[nH]2)cc1 [Compound M23, N-(4-ethylphenyl)-2-((6-methyl-1H-benzo[d]imidazol-2-yl)thio)acetamide]
pyocyanin levels [1]: less than half of the control
DHQ level [2]: increased
HHQ and HQNO levels [2]: reduced
activity (impacts on HAQ and pyocyanin levels), structure-activity comparison [3]: moderately active

COc1ccc2nc(SCC(=O)Nc3ccc(Cl)c(Cl)c3)[nH]c2c1 [Compound M24, N-(3,4-dichlorophenyl)-2-((6-methoxy-1H-benzo[d]imidazol-2-yl)thio)acetamide]
activity (impacts on HAQ and pyocyanin levels), structure-activity comparison [3]: decreased the activity

O=C(CSc1nc2ccccc2[nH]1)Nc1ccc(Cl)cc1 [Compound M26, 2-((1H-benzo[d]imidazol-2-yl)thio)-N-(4-chlorophenyl)acetamide]
pyocyanin levels [1]: less than half of the control
DHQ level [2]: increased
HHQ and HQNO levels [2]: reduced
concentration at which compound was effective (decreased HAQ levels), as low as [3]: 10 µM
activity (impacts on HAQ and pyocyanin levels), structure-activity comparison [3]: active compounds

Cc1ccc2nc(SCC(=O)Nc3ccc(Br)cc3)[nH]c2c1 [Compound M27, N-(4-bromophenyl)-2-((6-methyl-1H-benzo[d]imidazol-2-yl)thio)acetamide]
reduction of PA14-induced cytotoxicity [4]: effectively reduced cytotoxicity
pyocyanin levels [1]: less than half of the control
DHQ level [2]: increased
HHQ and HQNO levels [2]: reduced
concentration at which compound was effective (decreased HAQ levels), as low as [3]: 10 µM
activity (impacts on HAQ and pyocyanin levels), structure-activity comparison [3]: more active than M55

COc1ccc(NC(=O)CSc2nc3ccc([N+](=O)[O-])cc3[nH]2)c(OC)c1 [Compound M34, N-(2,4-dimethoxyphenyl)-2-((6-nitro-1H-benzo[d]imidazol-2-yl)thio)acetamide]
pyocyanin levels [1]: less than half of the control
HAQ levels compared to the solvent control [2]: do not significantly alter HAQ levels
concentration at which compound was effective (decreased HAQ levels), as low as [3]: 10 µM
activity (impacts on HAQ and pyocyanin levels), structure-activity comparison [3]: quite active

O=C(CSc1nc2ccccc2[nH]1)Nc1ccc([N+](=O)[O-])cc1 [Compound M45, 2-((1H-benzo[d]imidazol-2-yl)thio)-N-(4-nitrophenyl)acetamide]
activity (impacts on HAQ and pyocyanin levels), structure-activity comparison [3]: did not improve the activity

COc1ccccc1NC(=O)CSc1nc2ccccc2[nH]1 [Compound M46, 2-((1H-benzo[d]imidazol-2-yl)thio)-N-(2-methoxyphenyl)acetamide]
activity (impacts on HAQ and pyocyanin levels), structure-activity comparison [3]: did not improve the activity

CC(C)c1ccc(NC(=O)CSc2nc3ccccc3[nH]2)cc1 [Compound M49, 2-((1H-benzo[d]imidazol-2-yl)thio)-N-(4-isopropylphenyl)acetamide]
activity (impacts on HAQ and pyocyanin levels), structure-activity comparison [3]: more active compound

O=C(CSc1nc2ccc([N+](=O)[O-])cc2[nH]1)Nc1ccc(Br)cc1 [Compound M50, N-(4-bromophenyl)-2-((6-nitro-1H-benzo[d]imidazol-2-yl)thio)acetamide]
reduction of PA14-induced cytotoxicity [4]: effectively reduced cytotoxicity
reduction / inhibition of pyocyanin [1]: considerably inhibited
HAQ levels compared to the solvent control [2]: do not significantly alter HAQ levels
activity (impacts on HAQ and pyocyanin levels), structure-activity comparison [3]: most active
reduction / inhibition of HAQs [3]: considerably inhibited

O=C(CSc1nc2ccc([N+](=O)[O-])cc2[nH]1)Nc1ccc(Cl)cc1 [Compound M51, N-(4-chlorophenyl)-2-((6-nitro-1H-benzo[d]imidazol-2-yl)thio)acetamide]
HAQ levels compared to the solvent control [2]: intermediate phenotype
activity (impacts on HAQ and pyocyanin levels), structure-activity comparison [3]: most active

COc1ccccc1NC(=O)CSc1nc2ccc([N+](=O)[O-])cc2[nH]1 [Compound M53, N-(2-methoxyphenyl)-2-((6-nitro-1H-benzo[d]imidazol-2-yl)thio)acetamide]
HAQ levels compared to the solvent control [2]: do not significantly alter HAQ levels
activity (impacts on HAQ and pyocyanin levels), structure-activity comparison [3]: not very active

O=C(CSc1nc2ccccc2[nH]1)Nc1ccc(Br)cc1 [Compound M55, 2-((1H-benzo[d]imidazol-2-yl)thio)-N-(4-bromophenyl)acetamide]
DHQ level [2]: increased
HHQ and HQNO levels [2]: reduced
activity (impacts on HAQ and pyocyanin levels), structure-activity comparison [3]: active compounds

O=C(CSc1nc2ccccc2[nH]1)Nc1ccccc1 [Compound M56, 2-((1H-benzo[d]imidazol-2-yl)thio)-N-phenylacetamide]
pyocyanin production ([1]; tested at 10 μM): little impact
HAQ production / HAQ inhibition [3]: little impact

O=C(CSc1nc2ccc([N+](=O)[O-])cc2[nH]1)Nc1ccc(OC(F)(F)F)cc1 [Compound M58, 2-((6-nitro-1H-benzo[d]imidazol-2-yl)thio)-N-(4-(trifluoromethoxy)phenyl)acetamide]
HAQ levels compared to the solvent control [2]: intermediate phenotype
activity (impacts on HAQ and pyocyanin levels), structure-activity comparison [3]: most active

O=C(CSc1nc2ccc([N+](=O)[O-])cc2[nH]1)Nc1ccc(I)cc1 [Compound M59, N-(4-iodophenyl)-2-((6-nitro-1H-benzo[d]imidazol-2-yl)thio)acetamide]
reduction / inhibition of pyocyanin [1]: considerably inhibited
HAQ levels compared to the solvent control [2]: intermediate phenotype
activity (impacts on HAQ and pyocyanin levels), structure-activity comparison [3]: most active
reduction / inhibition of HAQs [3]: considerably inhibited

COc1ccc(NC(=O)CSc2nc3ccc([N+](=O)[O-])cc3[nH]2)cc1 [Compound M61, N-(4-methoxyphenyl)-2-((6-nitro-1H-benzo[d]imidazol-2-yl)thio)acetamide]
HAQ levels compared to the solvent control [2]: do not significantly alter HAQ levels
activity (impacts on HAQ and pyocyanin levels), structure-activity comparison [3]: most active

N#Cc1ccc(NC(=O)CSc2nc3ccc([N+](=O)[O-])cc3[nH]2)cc1 [Compound M62, N-(4-cyanophenyl)-2-((6-nitro-1H-benzo[d]imidazol-2-yl)thio)acetamide]
reduction of PA14-induced cytotoxicity [4]: effectively reduced cytotoxicity
HAQ levels compared to the solvent control [2]: do not significantly alter HAQ levels
activity (impacts on HAQ and pyocyanin levels), structure-activity comparison [3]: most active

O=C(CSc1nc2ccc(NC(=O)C(F)(F)F)cc2[nH]1)Nc1ccc(I)cc1 [Compound M63, 2,2,2-trifluoro-N-(2-((2-((4-iodophenyl)amino)-2-oxoethyl)thio)-1H-benzo[d]imidazol-6-yl)acetamide]
activity (impacts on HAQ and pyocyanin levels), structure-activity comparison [3]: inactive

CC(=O)Nc1ccc2nc(SCC(=O)Nc3ccc(I)cc3)[nH]c2c1 [Compound M65, 2-((6-acetamido-1H-benzo[d]imidazol-2-yl)thio)-N-(4-iodophenyl)acetamide]
activity (impacts on HAQ and pyocyanin levels), structure-activity comparison [3]: inactive

O=C(O)c1cn(C2CC2)c2cc(N3CCNCC3)c(F)cc2c1=O [ciprofloxacin, reference compound]
survival rate (P. aeruginosa PA14): 80%
